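Exposure lasted 48 hours, with cells grown in 96-well plates and compounds tested at five concentrations. At the GI50, growth is halved.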 Calls of active or inactive are those of the source. Cut-off read from the data, not from the text of the source: active = GI50 up to about 1.1 µM and inactive = higher.
Legend:
Assay in all cases: NCI-60 cell line screen, 48 h
HCT-15 = tested on: HCT-15
KM12 = tested on: KM12
UACC-257 = tested on: UACC-257
HCC 2998 = tested on: HCC 2998
NCI-H226 = tested on: NCI-H226
HCT-116 = tested on: HCT-116
MCF7 = tested on: MCF7
MOLT-4 = tested on: MOLT-4
UACC-62 = tested on: UACC-62
OVCAR-3 = tested on: OVCAR-3
SNB-75 = tested on: SNB-75
NCI/ADR-RES = tested on: NCI/ADR-RES
EKVX = tested on: EKVX
SK-OV-3 = tested on: SK-OV-3
MDA-MB-435 = tested on: MDA-MB-435
NCI-H23 = tested on: NCI-H23
HOP-92 = tested on: HOP-92
NCI-H522 = tested on: NCI-H522
SR = tested on: SR
IGROV-1 = tested on: IGROV-1

COc1cc(/C=N/n2c(C)n[nH]c2=O)cc(OC)c1OC
GI50 (HCT-15): > 100 µM | GI50 (KM12): 60.1 µM (inactive) | GI50 (UACC-257): > 100 µM (inactive) | GI50 (HCC 2998): > 100 µM (inactive) | GI50 (NCI-H226): > 100 µM (inactive) | GI50 (HCT-116): > 100 µM (inactive) | GI50 (MCF7): > 100 µM (inactive) | GI50 (MOLT-4): > 100 µM (inactive) | GI50 (UACC-62): 63.1 µM (inactive) | GI50 (OVCAR-3): 51.4 µM (inactive) | GI50 (SNB-75): > 100 µM (inactive) | GI50 (NCI/ADR-RES): > 100 µM (inactive) | GI50 (EKVX): 32.6 µM (inactive) | GI50 (SK-OV-3): > 100 µM (inactive) | GI50 (MDA-MB-435): 62.5 µM (inactive) | GI50 (NCI-H23): > 100 µM (inactive)

CCOC(=O)C(C)(Cc1ccc(O)cn1)NC(=O)c1ccccc1 (configuration not stated)
GI50 (HCT-15): > 100 µM | GI50 (KM12): > 100 µM (inactive) | GI50 (UACC-257): > 100 µM (inactive) | GI50 (HCC 2998): > 100 µM (inactive) | GI50 (NCI-H226): > 100 µM (inactive) | GI50 (HOP-92): 47 µM (inactive) | GI50 (HCT-116): > 100 µM (inactive) | GI50 (MOLT-4): > 100 µM (inactive) | GI50 (UACC-62): > 100 µM (inactive) | GI50 (NCI-H522): > 100 µM (inactive) | GI50 (OVCAR-3): > 100 µM (inactive) | GI50 (SNB-75): 80.4 µM (inactive) | GI50 (NCI/ADR-RES): > 100 µM (inactive) | GI50 (EKVX): > 100 µM (inactive) | GI50 (SR): > 100 µM (inactive) | GI50 (IGROV-1): > 100 µM (inactive) | GI50 (SK-OV-3): > 100 µM (inactive) | GI50 (MDA-MB-435): > 100 µM (inactive) | GI50 (NCI-H23): > 100 µM (inactive)

CCOC(=O)c1[nH]c(-c2[nH]c(-c3[nH]c(-c4[nH]c(C(=O)OCC)c(C)c4C(=O)OCC)c(C(=O)OCC)c3C)c(C)c2C(=O)OCC)c(C(=O)OCC)c1C
GI50 (HCT-15): > 100 µM | GI50 (KM12): > 100 µM (inactive) | GI50 (UACC-257): > 100 µM (inactive) | GI50 (HCC 2998): > 100 µM (inactive) | GI50 (NCI-H226): > 100 µM (inactive) | GI50 (HCT-116): > 100 µM (inactive) | GI50 (MCF7): > 100 µM (inactive) | GI50 (MOLT-4): > 100 µM (inactive) | GI50 (UACC-62): > 100 µM (inactive) | GI50 (NCI-H522): > 100 µM (inactive) | GI50 (OVCAR-3): > 100 µM (inactive) | GI50 (NCI/ADR-RES): > 100 µM (inactive) | GI50 (EKVX): > 100 µM (inactive) | GI50 (IGROV-1): > 100 µM (inactive) | GI50 (SK-OV-3): > 100 µM (inactive) | GI50 (MDA-MB-435): > 100 µM (inactive) | GI50 (NCI-H23): > 100 µM (inactive)

O=c1n(N=[S+]([O-])(c2ccccc2)c2ccccc2)c(=O)n2n1C1C=CC2CC1
GI50 (HCT-15): > 100 µM | GI50 (KM12): > 100 µM (inactive) | GI50 (UACC-257): > 100 µM (inactive) | GI50 (NCI-H226): > 100 µM (inactive) | GI50 (HOP-92): > 100 µM (inactive) | GI50 (HCT-116): > 100 µM (inactive) | GI50 (MCF7): > 100 µM (inactive) | GI50 (MOLT-4): > 100 µM (inactive) | GI50 (UACC-62): > 100 µM (inactive) | GI50 (OVCAR-3): > 100 µM (inactive) | GI50 (SNB-75): > 100 µM (inactive) | GI50 (NCI/ADR-RES): > 100 µM (inactive) | GI50 (EKVX): > 100 µM (inactive) | GI50 (SR): > 100 µM (inactive) | GI50 (IGROV-1): > 100 µM (inactive) | GI50 (SK-OV-3): > 100 µM (inactive) | GI50 (MDA-MB-435): > 100 µM (inactive) | GI50 (NCI-H23): > 100 µM (inactive)

CC1=CC2=C(OCO1)C(=O)c1ccccc1C2=O
GI50 (HCT-15): 14.8 µM | GI50 (KM12): 6.71 µM (inactive) | GI50 (UACC-257): 2.79 µM (inactive) | GI50 (HCC 2998): 30.5 µM (inactive) | GI50 (NCI-H226): 10.4 µM (inactive) | GI50 (HOP-92): 10.4 µM (inactive) | GI50 (HCT-116): 7.16 µM (inactive) | GI50 (MOLT-4): 6.84 µM (inactive) | GI50 (UACC-62): 5.11 µM (inactive) | GI50 (NCI-H522): 2.57 µM (inactive) | GI50 (OVCAR-3): 5.4 µM (inactive) | GI50 (SNB-75): 3.66 µM (inactive) | GI50 (NCI/ADR-RES): 3.31 µM (inactive) | GI50 (EKVX): 46.7 µM (inactive) | GI50 (SR): 7.82 µM (inactive) | GI50 (IGROV-1): 11 µM (inactive) | GI50 (SK-OV-3): 13.3 µM (inactive) | GI50 (MDA-MB-435): 1.46 µM (inactive) | GI50 (NCI-H23): 3.27 µM (inactive)

Oc1c2cc(Cl)cc1COCc1cc(Cl)cc(c1O)COCc1cc(Cl)cc(c1O)COC2
GI50 (HCT-15): 36 µM | GI50 (KM12): 84.3 µM (inactive) | GI50 (UACC-257): > 100 µM (inactive) | GI50 (HCC 2998): > 100 µM (inactive) | GI50 (NCI-H226): 30.5 µM (inactive) | GI50 (HOP-92): 6.9 µM (inactive) | GI50 (HCT-116): 8.13 µM (inactive) | GI50 (MCF7): 74.3 µM (inactive) | GI50 (UACC-62): 56.5 µM (inactive) | GI50 (OVCAR-3): 47.2 µM (inactive) | GI50 (SNB-75): 17.8 µM (inactive) | GI50 (NCI/ADR-RES): 38.8 µM (inactive) | GI50 (EKVX): 54 µM (inactive) | GI50 (SR): > 100 µM (inactive) | GI50 (IGROV-1): 17 µM (inactive) | GI50 (SK-OV-3): 59.6 µM (inactive) | GI50 (MDA-MB-435): 40.7 µM (inactive) | GI50 (NCI-H23): 20.8 µM (inactive)

O=CN1CCN(C(=O)c2ccc(Cl)cc2Cl)C1=S
GI50 (HCT-15): 78.7 µM | GI50 (KM12): 43.2 µM (inactive) | GI50 (UACC-257): > 100 µM (inactive) | GI50 (HCC 2998): > 100 µM (inactive) | GI50 (NCI-H226): > 100 µM (inactive) | GI50 (HOP-92): 34.2 µM (inactive) | GI50 (HCT-116): > 100 µM (inactive) | GI50 (MCF7): 34.6 µM (inactive) | GI50 (MOLT-4): > 100 µM (inactive) | GI50 (UACC-62): > 100 µM (inactive) | GI50 (NCI-H522): 20.3 µM (inactive) | GI50 (OVCAR-3): 40.3 µM (inactive) | GI50 (SNB-75): 21 µM (inactive) | GI50 (NCI/ADR-RES): > 100 µM (inactive) | GI50 (EKVX): > 100 µM (inactive) | GI50 (IGROV-1): > 100 µM (inactive) | GI50 (SK-OV-3): > 100 µM (inactive) | GI50 (MDA-MB-435): 43.9 µM (inactive) | GI50 (NCI-H23): > 100 µM (inactive)

O=C1CCCCC/C1=C\c1cccc(F)c1
GI50 (HCT-15): 39.8 µM | GI50 (KM12): 59.2 µM (inactive) | GI50 (UACC-257): 59 µM (inactive) | GI50 (HCC 2998): 59.8 µM (inactive) | GI50 (HCT-116): 54.6 µM (inactive) | GI50 (MCF7): 64.9 µM (inactive) | GI50 (MOLT-4): 24.8 µM (inactive) | GI50 (UACC-62): 67.3 µM (inactive) | GI50 (OVCAR-3): > 100 µM (inactive) | GI50 (SNB-75): > 100 µM (inactive) | GI50 (NCI/ADR-RES): > 100 µM (inactive) | GI50 (EKVX): 73.8 µM (inactive) | GI50 (SR): 13.5 µM (inactive) | GI50 (IGROV-1): 58.9 µM (inactive) | GI50 (SK-OV-3): > 100 µM (inactive) | GI50 (MDA-MB-435): 55.2 µM (inactive)

From ChEMBL document CHEMBL1201862, “PubChem BioAssay data set” (2004)
